Measured values as given in patent US20090286781A1, “Use of Suluble Guanylate Cyclase Acitvators for Treating Acute and Chronic Lung Diseases” (Bayer HealtHCare AG, priority 2005, published 2009).

Test system: male C57B1/6J mice subjected to hypoxia (10% O2)
Assay: Hypoxia model of experimental pulmonary hypertension
Assay type: in vivo
Settings: hypoxia (10% O2) for 7 or 10 days; 300 ppm of compound in the feed for 10 days; lung histology; compared with the hypoxia control animals (FIG. 1)
Source text: The method for investigating the effect of the compound (IV) of the invention in the model of experimental pulmonary hypertension was as described (Dumitrascu R, Weissmann N, Ghofrani H A, Beuerlein K, Schmidt H H H W, Stasch J P, Gnoth M J, Seeger W, Grimminger F, Schermuly R T, Activation of soluble guanylate cyclase reverses lung vascular remodeling and pulmonary hypertension evoked by hypoxia in mice, Circulation 2006, 113: 286-295). For this purpose, male C57B1/6J mice (Charles River Laboratories) were subjected to hypoxia (10% O2) for 7 or 10 days. The control animals were kept in a normal oxygen environment. The mice were treated for 10 days with 300 ppm of compound (IV) in the feed. At the end of the test, the mice were sacrificed and the lungs were isolated. Histological workup and evaluation was carried out as in the abovementioned publication.

COC(=O)N(C)c1c(N)nc(-c2nn(Cc3ccccc3F)c3ncccc23)nc1N [Compound (IV)]
non-muscularized and partly muscularized fraction of the pulmonary vessels: significantly reduced
